27 compounds from patent publication US20230033285A1, “Protease Inhibitors for Treatment of Coronavirus Infections” (The Scripps Research Institute, priority 2021, published 2023) can be followed below.

Like-named read-outs stand apart in the source and are kept apart here.

The subject of this experiment is SARS-CoV-2. In words: microbe, parasite or virus in culture. Type of experiment: cell-based. Conditions: read-out: EC50, μM (Hela).
Setting [1] is: Severe acute respiratory syndrome coronavirus 2, HeLa-ACE2 cells infected with SARS-CoV-2, 24 h, immunofluorescence of infected cells.

The term EC50 denotes the concentration giving half of the maximal effect. Regarding `Cc1ccccc1NC(=O)C(=O)N[C@@H](CC(C)C)C(=O)N[C@H](C=O)C[C@@H]1CCNC1=O` [Compound 38, N^1-((S)-4-methyl-1-oxo-1-(((S)-1-oxo-3-((S)-2-oxopyrrolidin-3-yl)propan-2-yl)amino)pentan-2-yl)-N^2-(o-tolyl)oxalamide], the EC50 under setting [1] lay within 0.05 to 0.2 µM. The same measure, in the same setting: in the case of `COc1cccc2[nH]c(C(=O)N[C@@H](CC(C)C)C(=O)N[C@@H](C[C@@H]3CCNC3=O)C(=O)COC(=O)C3CCN(C4CCCCC4)CC3)cc12` [Compound 123, (S)-3-((S)-2-(4-methoxy-1H-indole-2-carboxamido)-4-methylpentanamido)-2-oxo-4-((S)-2-oxopyrrolidin-3-yl)butyl 1-cyclohexylpiperidine-4-carboxylate] it was 0.5 to 1 µM; in that of `CC(C)C[C@H](NC(=O)C(=O)Nc1ccccc1F)C(=O)N[C@@H](C[C@@H]1CCCNC1=O)C(=O)COC(=O)OC(C)C` [Compound 107, (S)-3-((S)-2-(2-((2-fluorophenyl)amino)-2-oxoacetamido)-4-methylpentanamido)-2-oxo-4-((S)-2-oxopiperidin-3-yl)butyl isopropyl carbonate], less than 0.05 µM; in that of `CC(C)C[C@H](NC(=O)OCc1cccc(Cl)c1)C(=O)N[C@@H](C[C@@H]1CCNC1=O)C(=O)CO` [Compound 122, 3-chlorobenzyl ((S)-1-(((S)-4-hydroxy-3-oxo-1-((S)-2-oxopyrrolidin-3-yl)butan-2-yl)amino)-4-methyl-1-oxopentan-2-yl)carbamate], more than 1 µM.

Take `CC(C)(C)C[C@H](NC(=O)C(=O)Nc1ccc(OC(F)(F)F)cc1)C(=O)N[C@@H](C[C@@H]1CCCNC1=O)C(=O)CO` [Compound 101, N^1-((S)-1-(((S)-4-hydroxy-3-oxo-1-((S)-2-oxopiperidin-3-yl)butan-2-yl)amino)-4,4-dimethyl-1-oxopentan-2-yl)-N^2-(4-(trifluoromethoxy)phenyl)oxalamide]: the EC50 under setting [1] lay within 0.05 to 0.2 µM.

As for `CC(C)C[C@H](NC(=O)C(=O)Nc1ccccc1)C(=O)N[C@H](C=O)C[C@@H]1CCNC1=O` [Compound 37, N^1-((S)-4-methyl-1-oxo-1-(((S)-1-oxo-3-((S)-2-oxopyrrolidin-3-yl)propan-2-yl)amino)pentan-2-yl)-N^2-phenyloxalamide], the EC50 under setting [1] is more than 1 µM. On the same count and under the same terms, in the case of `CC(C)(C)C[C@H](NC(=O)C(=O)Nc1cccc(Cl)c1)C(=O)N[C@@H](CC1CCCNC1=O)C(=O)CO` (stereo partly drawn) [Compound 102, N^1-(3-chlorophenyl)-N^2-((S)-1-(((S)-4-hydroxy-3-oxo-1-((S)-2-oxopiperidin-3-yl)butan-2-yl)amino)-4,4-dimethyl-l-oxopentan-2-yl)oxalamide] it was less than 0.05 µM.

In the case of `CC1(C)[C@@H]2[C@@H](C(=O)N[C@H](C=O)C[C@@H]3CCCNC3=O)N(C(=O)C(=O)NC3CCCCC3)C[C@@H]21` [Compound 48, (1R,2S,5S)-3-(2-(cyclohexylamino)-2-oxoacetyl)-6,6-dimethyl-N-((S)-1-oxo-3-((S)-2-oxopiperidin-3-yl)propan-2-yl)-3-azabicyclo[3.1.0]hexane-2-carboxamide], under setting [1], the EC50 is 0.5 to 1 µM. On to `CC1(C)[C@@H]2[C@@H](C(=O)N[C@H](C#N)C[C@@H]3CCCNC3=O)N(C(=O)c3ccnc(C(F)(F)F)c3)C[C@@H]21` [Compound 130, (1R,2S,5S)-N-((S)-1-cyano-2-((S)-2-oxopiperidin-3-yl)ethyl)-6,6-dimethyl-3-(2-(trifluoromethyl)isonicotinoyl)-3-azabicyclo[3.1.0]hexane-2-carboxamide], for which the EC50 under setting [1] is more than 1 µM.

Take `CC(C)C[C@H](NC(=O)C(=O)Nc1ccccc1F)C(=O)N[C@H](C=O)C[C@@H]1CCCNC1=O` [Compound 41, N^1-(2-fluorophenyl)-N^2-((S)-4-methyl-1-oxo-1-(((S)-1-oxo-3-((S)-2-oxopiperidin-3-yl)propan-2-yl)amino)pentan-2-yl)oxalamide]: the EC50 under setting [1] fell in the range of 0.05 to 0.2 µM. For `CC(C)C[C@H](NC(=O)C(=O)NC1(C)CC1)C(=O)N[C@H](C=O)C[C@@H]1CCNC1=O` [Compound 43, N^1-((S)-4-methyl-1-oxo-1-(((S)-1-oxo-3-((S)-2-oxopyrrolidin-3-yl)propan-2-yl)amino)pentan-2-yl)-N^2-(1-methylcyclopropyl)oxalamide], under setting [1], the EC50 is more than 1 µM. Still for that read-out and setting: in the case of `COc1cccc2[nH]c(C(=O)N[C@@H](CC(C)C)C(=O)N[C@H](C=O)C[C@@H]3CCNC3=O)cc12` [Compound 35, 4-methoxy-N-((S)-4-methyl-1-oxo-1-(((S)-1-oxo-3-((S)-2-oxopyrrolidin-3-yl)propan-2-yl)amino)pentan-2-yl)-1H-indole-2-carboxamide] it was more than 1 µM; in that of `CC(C)C[C@H](NC(=O)C(=O)Nc1ccccc1F)C(=O)N[C@@H](C[C@@H]1CCCNC1=O)C(=O)CO` [Compound 21, N^1-(2-fluorophenyl)-N^2-((S)-1-(((S)-4-hydroxy-3-oxo-1-((S)-2-oxopiperidin-3-yl)butan-2-yl)amino)-4-methyl-1-oxopentan-2-yl)oxalamide], 0.05 to 0.2 µM. As to `CC(C)(C)[C@H](NC(=O)C(F)(F)F)C(=O)N1C[C@H]2[C@@H]([C@H]1C(=O)N[C@H](C#N)C[C@@H]1CCCNC1=O)C2(C)C` [Compound 63, (1R,2S,5S)-N-((S)-1-cyano-2-((S)-2-oxopiperidin-3-yl)ethyl)-3-((S)-3,3-dimethyl-2-(2,2,2-trifluoroacetamido)butanoyl)-6,6-dimethyl-3-azabicyclo[3.1.0]hexane-2-carboxamide], for the setting “Severe acute respiratory syndrome coronavirus 2, HeLa-ACE2, 24 h”, the EC50 is less than 0.05 µM. For the compound `O=C(Nc1ccccc1F)C(=O)N[C@@H](CC1CC1)C(=O)N[C@@H](C[C@@H]1CCCNC1=O)C(=O)CO` [Compound 90, N^1-((S)-3-cyclopropyl-1-(((S)-4-hydroxy-3-oxo-1-((S)-2-oxopiperidin-3-yl)butan-2-yl)amino)-1-oxopropan-2-yl)-N^2-(2-fluorophenyl)oxalamide], the EC50 under setting [1] is less than 0.05 µM.

Take `CC(C)(C)NC(=O)C(=O)N1C[C@@H]2CCC[C@@H]2[C@H]1C(=O)N[C@@H](C[C@@H]1CCCNC1=O)C(=O)CO` [Compound 32, (1S,3aR,6aS)-2-(2-(tert-butylamino)-2-oxoacetyl)-N-((S)-4-hydroxy-3-oxo-1-((S)-2-oxopiperidin-3-yl)butan-2-yl)octahydrocyclopenta[c]pyrrole-1-carboxamide]: the 50% effective concentration (EC50) under setting [1] is 0.5 to 1 µM. In the case of `O=C(Nc1ccccc1F)C(=O)N[C@@H](CC1CCCCC1)C(=O)N[C@@H](C[C@@H]1CCCNC1=O)C(=O)CO` [Compound 24, N^1-((S)-3-cyclohexyl-1-(((S)-4-hydroxy-3-oxo-1-((S)-2-oxopiperidin-3-yl)butan-2-yl)amino)-1-oxopropan-2-yl)-N^2-(2-fluorophenyl)oxalamide], under setting [1], the EC50 lay within 0.05 to 0.2 µM. As for `O=C[C@H](C[C@@H]1CCNC1=O)NC(=O)[C@H](CC1CC1)NC(=O)c1cc(-c2ccccc2F)on1` [Compound 125, N-((S)-3-cyclopropyl-1-oxo-1-(((S)-1-oxo-3-((S)-2-oxopyrrolidin-3-yl)propan-2-yl)amino)propan-2-yl)-5-(2-fluorophenyl)isoxazole-3-carboxamide], under setting [1], the EC50 lay in the range of 0.05 to 0.2 µM. With `CC(C)(C)C[C@H](NC(=O)C(=O)Nc1cccc(C(F)(F)F)n1)C(=O)N[C@@H](C[C@@H]1CCCNC1=O)C(=O)CO` [Compound 112], the EC50 under setting [1] was in the range of 0.5 to 1 µM. Consider `CC(C)CC(=O)OCC(=O)[C@H](C[C@@H]1CCCNC1=O)NC(=O)[C@H](CC(C)C)NC(=O)C(=O)Nc1ccccc1F` [Compound 104, (S)-3-((S)-2-(2-((2-fluorophenyl)amino)-2-oxoacetamido)-4-methylpentanamido)-2-oxo-4-((S)-2-oxopiperidin-3-yl)butyl 3-methylbutanoate], for which the EC50 under setting [1] is 0.05 to 0.2 µM. On the same count and under the same terms, in the case of `Cc1ccccc1NC(=O)C(=O)N[C@@H](CC1CCCCC1)C(=O)N[C@@H](C[C@@H]1CCNC1=O)C(=O)CO` [Compound 8, N^1-((S)-3-cyclohexyl-1-(((S)-4-hydroxy-3-oxo-1-((S)-2-oxopyrrolidin-3-yl)butan-2-yl)amino)-1-oxopropan-2-yl)-N^2-(o-tolyl)oxalamide] it was 0.2 to 0.5 µM. On the same count and under the same terms, in the case of `N#C[C@H](C[C@@H]1CCNC1=O)NC(=O)[C@@H]1[C@H]2CCC[C@H]2CN1C(=O)C(=O)Nc1ccccc1F` [Compound 62, (1S,3aR,6aS)-N-((S)-1-cyano-2-((S)-2-oxopyrrolidin-3-yl)ethyl)-2-(2-((2-fluorophenyl)amino)-2-oxoacetyl)octahydrocyclopenta[c] pyrrole-1-carboxamide] it was more than 1 µM; in that of `COc1cccc(OC)c1NC(=O)C(=O)N[C@@H](CC(C)C)C(=O)N[C@@H](C[C@@H]1CCNC1=O)C(=O)CO` [Compound 15, N^1-(2,6-dimethoxyphenyl)-N^2-((S)-1-(((S)-4-hydroxy-3-oxo-1-((S)-2-oxopyrrolidin-3-yl)butan-2-yl)amino)-4-methyl-1-oxopentan-2-yl)oxalamide], more than 1 µM.

`CC(C)C[C@H](NC(=O)C(=O)NCC(F)(F)F)C(=O)N[C@@H](C[C@@H]1CCNC1=O)C(=O)CO` [Compound 26]: the EC50 under setting [1] was more than 1 µM. With `CC(C)(C)NC(=O)C(=O)N1C[C@@H]2CCC[C@@H]2[C@H]1C(=O)N[C@@H](C[C@@H]1CCNC1=O)C(=O)CO` [Compound 31, (1S,3aR,6aS)-2-(2-(tert-butylamino)-2-oxoacetyl)-N-((S)-4-hydroxy-3-oxo-1-((S)-2-oxopyrrolidin-3-yl)butan-2-yl)octahydrocyclopenta[c]pyrrole-1-carboxamide], under setting [1], the EC50 was more than 1 µM. In the case of `CC(C)C[C@H](NC(=O)C(=O)Nc1ccccc1F)C(=O)N[C@@H](C[C@@H]1CCNC1=O)C(=O)COC(=O)C1CCC(N2CCCCC2)CC1` (stereo partly drawn) [Compound 5, (S)-3-((S)-2-(2-((2-fluorophenyl)amino)-2-oxoacetamido)-4-methylpentanamido)-2-oxo-4-((S)-2-oxopyrrolidin-3-yl)butyl 4-(piperidin-1-yl)cyclohexane-1-carboxylate], under setting [1], the EC50 was 0.2 to 0.5 µM.

Turning to `Cc1ccccc1NC(=O)C(=O)N[C@@H](Cc1ccccc1F)C(=O)N[C@@H](C[C@@H]1CCNC1=O)C(=O)CO` [Compound 20, N^1-((S)-3-(2-fluorophenyl)-1-(((S)-4-hydroxy-3-oxo-1-((S)-2-oxopyrrolidin-3-yl)butan-2-yl)amino)-1-oxopropan-2-yl)-N^2-(o-tolyl)oxalamide], the EC50 under setting [1] is more than 1 µM.
